From patent US12448366B2, “Solid forms of pralsetinib” (Rigel Pharmaceuticals, Inc., priority 2020, dated 2025)
Values after ≈ are worked out from the molar mass of the structure shown. Like-named read-outs stand apart in the source and are kept apart here.

What was measured:
Type in all cases: physicochemical
[1] = Drying of free base solid forms (XRPD); details: for behaviour upon drying: XRPD
[2] = Co-milling co-crystal screening, XRPD; details: co-milling with freebase
Description: About 30 mg of Compound (I) freebase and 1.05 eq. of co-former were direct weighed into the milling capsule and manually mixed before the addition of 1 volume of solvent (MtBE, MeOAc, or EtOH). Each system was milled once for 30 seconds before solids were collected. Samples of the wet material were taken for XRPD of the ‘wet’ material before drying under active vacuum at 50° C. for 2 hours. Unique patterns were further exposed to 97% R.H. for 24 hours.

[3] = Co-melting co-crystal screening, XRPD; details: co-melting with pralsetinib freebase, 1.05 eq. co-former
Description: The resulting powder was packed into a 100 μL DSC pan and heated at a rate of 10° C./min to 10° C. above the melting temperature of the lowest melting component. The experiment was isothermally held for 5 min before cooling to room temperature at a rate of 10° C./min. Samples were then taken for XRPD.

[4] = Dynamic vapor sorption (DVS); details: for DVS Mass Change: glutarate and succinate: between 2% and 90% relative humidity
Description: Dynamic Vapor Sorption (DVS) was done using a DVS Intrinsic 1. The sample is loaded into a sample pan and suspended from a microbalance. A typical sample mass for DVS measurement is 25 mg. Nitrogen gas bubbled through distilled water provides the desired relative humidity. A typical measurement comprises the steps: • 1—Equilibrate at 50% RH • 2—50% to 2%. (50%, 40%, 30%, 20%, 10% and 2%) • a. Hold minimum of 5 mins and maximum of 60 minutes at each humidity. The pass criteria is less than 0.002% change • 3—2% to 95% (2%, 10%, 20%, 30%, 40%, 50%, 60%, 70%, 80%, 90%, 95%) • a. Hold minimum of 5 mins and maximum of 60 minutes at each humidity. The pass criteria is less than 0.002% change • 4—95% to 2% (95%, 80%, 70%, 60%, 50%, 40%, 30%, 20%, 10%, 2%) • a. Hold minimum of 5 mins and maximum of 60 minutes at each humidity. The pass criteria is less than 0.002% change • 5—2% to 50% (2%, 10%, 20%, 30%, 40%, 50%) • a. Hold minimum of 5 mins and maximum of 60 minutes at each humidity. The pass criteria is less than 0.002% change High Pressure Liquid Chromatography (HPLC)
Dynamic Vapor Sorption (DVS) was performed using a DVS Intrinsic 1. The samples (12-31 mg) was loaded into a sample pan, suspended from a microbalance and exposed to a humidified stream of nitrogen gas. The sample was held for a minimum of 5 min at each level and only progressed to the next humidity level if there was <0.002% change in weight between measurements (interval: 60 seconds) or 240 min had elapsed. The following program was used: • 1—Equilibration at 50% RH • 2—50% to 2%. (50%, 40%, 30%, 20%, 10% and 2%) • 3—2% to 95% (2%, 10%, 20%, 30%, 40%, 50%, 60%, 70%, 80%, 90%, 95%) • 4—95% to 2% (95%, 80%, 70%, 60%, 50%, 40%, 30%, 20%, 10%, 2%) • 5—2% to 50% (2%, 10%, 20%, 30%, 40%, 50%) High Performance Liquid Chromatography (HPLC)

[5] = Humidity exposure, 75% relative humidity at 40° C. for one week, XRPD; details: for stability on exposure to 75% relative humidity at 40° C.: one week / 7 days, XRPD
[6] = Solubility in water and simulated fluids (fasted/fed state simulated intestinal fluid, fasted state simulated gastric fluid); details: for solubility: thermodynamic from solid
[7] = One week (7 days) slurry stability by XRPD and HPLC; details: for stability slurrying 7 days in EtOAc / stability slurrying 7 days in EtOH / stability slurrying 7 days in EtOH:water (95:5 vol): XRPD and HPLC
[8] = Salt screening: XRPD of wet cake, after drying under vacuum at 50° C., after exposure to 97% relative humidity; details: XRPD; for stability of salt solid form to humidification: 97% (>95%) relative humidity; for stability of salt solid form to drying: vacuum at 50° C.
Description: Stock solutions of counter-ion were prepared in EtOH, MeOH, or EtOAc, depending on solubility. […] The solvent was allowed to evaporate at room temperature over the weekend and then placed at 50° C. under vacuum for 3 hours to remove any remaining solvent. Approximately 25 volumes solvent (0.6 mL) was added to each vial for screening. The three solvents selected were EtOH, EtOAc, and IPA:water (9:1 vol). […] XRPD analysis was done in three stages. XRPD of the wet cake was done for all samples. Unique solids were then left on XRPD plates and dried under vacuum at 50° C. XRPD of unique dry solids was then done. […] The humid environment was generated by placing a beaker of saturated potassium sulfate in water in a sealed container. All XRPD patterns were compared to counter ion XRPD patterns and known free base patterns. Where solids were not of sufficient quantity to isolate, the solvent was evaporated at room temperature, the material dried at 50° C. under active vacuum for 3 hours, and then reslurried at room temperature in either MtBE or IPAc overnight after heating to 45° C. for 30 minutes.

CO[C@]1(C(=O)N[C@@H](C)c2ccc(-n3cc(F)cn3)nc2)CC[C@H](c2nc(C)cc(Nc3cc(C)[nH]n3)n2)CC1 [Solid Form J, pralsetinib]
behaviour upon drying [1]: unstable and quickly converted to amorphous | behaviour upon drying ([1]; listed as Pattern J): either lost crystallinity or became amorphous

O=C(O)c1cc(O)ccc1O [Gentisic Acid]
Wet (XRPD) ([2]; solvent MtBE, MeOAc, EtOH): FB-C | Dry (XRPD) [3]: Am.

CO[C@]1(C(=O)N[C@@H](C)c2ccc(-n3cc(F)cn3)nc2)CC[C@H](c2nc(C)cc(Nc3cc(C)[nH]n3)n2)CC1 [Solid Form D, pralsetinib]
behaviour sitting in atmosphere [1]: converted to other solid forms | behaviour upon drying [1]: converted to solid form B

CO[C@]1(C(=O)N[C@@H](C)c2ccc(-n3cc(F)cn3)nc2)CC[C@H](c2nc(C)cc(Nc3cc(C)[nH]n3)n2)CC1 [Solid Form P, pralsetinib]
behaviour upon drying [1]: unstable upon drying and converted to a mixture of material characterized by XRPD Pattern P and XRPD Pattern L and extra peaks

CO[C@]1(C(=O)N[C@@H](C)c2ccc(-n3cc(F)cn3)nc2)CC[C@H](c2nc(C)cc(Nc3cc(C)[nH]n3)n2)CC1 [Solid Form I, pralsetinib]
behaviour upon drying ([1]; listed as Pattern I): lost crystallinity

O=C(O)c1ccccc1 [Benzoic Acid]
Wet (XRPD) ([2]; solvent MtBE, MeOAc, EtOH): FB-C | Dry (XRPD) [3]: Am.

CO[C@]1(C(=O)N[C@@H](C)c2ccc(-n3cc(F)cn3)nc2)CC[C@H](c2nc(C)cc(Nc3cc(C)[nH]n3)n2)CC1 [Solid Form L, pralsetinib]
behaviour upon drying ([1]; listed as Pattern L): stable

CO[C@]1(C(=O)N[C@@H](C)c2ccc(-n3cc(F)cn3)nc2)CC[C@H](c2nc(C)cc(Nc3cc(C)[nH]n3)n2)CC1 [Solid Form K, pralsetinib]
behaviour upon drying [1]: unstable on drying and converted to material characterized by XRPD Pattern M

Urea
Wet (XRPD) ([2]; solvent EtOH): 16-B + FB-C | Humidity (XRPD) ([2]; solvent EtOH, 97% R.H. for 24 hours): 16-B + FB-C | Wet (XRPD) ([2]; solvent MtBE, MeOAc): FB-C + urea | Dry (XRPD) [3]: FB-A +

CO[C@]1(C(=O)N[C@@H](C)c2ccc(-n3cc(F)cn3)nc2)CC[C@H](c2nc(C)cc(Nc3cc(C)[nH]n3)n2)CC1 [Solid Form Q, pralsetinib]
behaviour upon drying [1]: lost crystallinity

COc1cc(C(=O)O)ccc1O [Vanillic Acid]
Wet (XRPD) ([2]; solvent EtOH): FB-C | Wet (XRPD) ([2]; solvent MtBE, MeOAc): FB-C + vanillic acid | Dry (XRPD) [3]: Am.

O.O.O=c1c(O)c(-c2ccc(O)c(O)c2)oc2cc(O)cc(O)c12 [Quercetin Dihydrate]
Wet (XRPD) ([2]; solvent MtBE, MeOAc, EtOH): FB-C + quercetin | Dry (XRPD) [3]: Am.

Nc1ccc(C(=O)O)cc1 [4-Aminobenzoic Acid]
Wet (XRPD) ([2]; solvent EtOH): FB-C | Wet (XRPD) ([2]; solvent MtBE, MeOAc): FB-C + 4-Aminobenzoic

CO[C@]1(C(=O)N[C@@H](C)c2ccc(-n3cc(F)cn3)nc2)CC[C@H](c2nc(C)cc(Nc3cc(C)[nH]n3)n2)CC1 [Solid Form 15-A, pralsetinib]
mass change by DVS ([4]; between 2% and 90% relative humidity, listed as solid form 15-A): 3.4 wt. % | mass change by DVS ([4]; between 15% and 75% relative humidity, listed as solid form 15-A): 1.9 wt. % | DVS Mass Change ([4]; listed as Succinate 15-A): 3.40 wt. % | reversibility of the DVS mass change ([4]; listed as solid form 15-A): appears to be reversible | stability on exposure to 75% relative humidity at 40° C. ([5]; listed as Solid form 15-A): converted to Pattern 15-A+B | solubility in simulated gastric fluid [6]: high solubility | residual solid after solubility test ([6]; fasted state simulated gastric fluid, listed as solid form 15-A): solid form 15-D | Solubility in fasted state simulated gastric fluid ([6]; listed as solid form 15-A): 1120 µg/mL (≈ 2100 µM) | Solubility in fasted state simulated intestinal fluid ([6]; listed as solid form 15-A): 20 µg/mL (≈ 37.5 µM) | Solubility in fed state simulated intestinal fluid ([6]; listed as solid form 15-A): 840 µg/mL (≈ 1570 µM) | Solubility in water ([6]; listed as solid form 15-A): 450 µg/mL (≈ 843 µM) | stability slurrying 7 days in EtOAc ([7]; listed as Solid form 15-A): stable | stability slurrying 7 days in EtOH ([7]; listed as Solid form 15-A): stable | reduction in purity after 7 days slurry ([7]; EtOH:water (95:5 vol) slurry): 0.13% | stability slurrying 7 days in EtOH:water (95:5 vol) ([7]; listed as Solid form 15-A): converted to Pattern 15-C | stability of salt solid form to humidification ([8]; listed as Pattern 15-A): stable | stability of salt solid form to humidification ([8]; listed as succinate 15-A): stable | stability of salt solid form to drying ([8]; listed as succinate 15-A): stable

O=C1NS(=O)(=O)c2ccccc21 [Saccharin]
Wet (XRPD) ([2]; solvent EtOH): Am. + 1 peak | Wet (XRPD) ([2]; solvent MeOAc): Am. + trace FB-C | Wet (XRPD) ([2]; solvent MtBE): FB-C + saccharin | Dry (XRPD) [3]: Am.

O=C(O)c1ccc(O)cc1 [4-Hydroxybenzoic Acid]
Wet (XRPD) ([2]; solvent MtBE, MeOAc, EtOH): FB-C | Dry (XRPD) [3]: Am.

CO[C@]1(C(=O)N[C@@H](C)c2ccc(-n3cc(F)cn3)nc2)CC[C@H](c2nc(C)cc(Nc3cc(C)[nH]n3)n2)CC1 [Solid Form 14-A, pralsetinib]
hysteresis in the DVS plot [4]: minimal hysteresis | mass change by DVS ([4]; between 2% and 90% relative humidity, listed as solid form 14-A): 0.94 wt. % | mass change by DVS ([4]; between 15% and 75% relative humidity, listed as solid form 14-A): 0.86 wt. % | DVS Mass Change ([4]; listed as Phosphate 14-A): 0.94 wt. % | reversibility of the DVS mass change ([4]; listed as solid form 14-A): appears to be reversible | Stability 40° C./75% RH ([5]; XRPD pattern after exposure, listed as Phosphate 14-A): Stable | stability on exposure to 75% relative humidity at 40° C. ([5]; listed as solid form 14-A): stable | solubility ([6]; fasted state simulated gastric fluid, fassgf or other biorelevant, read-out: Solubility in fasted state simulated gastric fluid): 1760 µg/mL (≈ 3300 µM) | residual solid after solubility test ([6]; fasted state simulated gastric fluid, listed as solid form 14-A): amorphous | residual solid after solubility test ([6]; fasted state simulated intestinal fluid): pralsetinib freebase solid form A | residual solid after solubility test ([6]; fed state simulated intestinal fluid): amorphous | solubility ([6]; fed state simulated intestinal fluid, fessif, read-out: Solubility in fed state simulated intestinal fluid): 490 µg/mL (≈ 918 µM) | Solubility in fasted state simulated intestinal fluid ([6]; listed as solid form 14-A): 200 µg/mL (≈ 375 µM) | Solubility in water ([6]; listed as solid form 14-A): 1700 µg/mL (≈ 3190 µM) | solubility in water ([6]; listed as solid form 14-A): high solubility | residual solid after solubility test ([6]; water): XRPD Pattern 14-A | Stability 7-day slurry [7]: Stable | stability slurrying 7 days in EtOAc ([7]; listed as solid form 14-A): stable | stability slurrying 7 days in EtOH ([7]; listed as solid form 14-A): stable | stability slurrying 7 days in EtOH:water (95:5 vol) ([7]; listed as solid form 14-A): stable | reduction (HPLC purity) after 7 days slurry ([7]; materials isolated from EtOAc): 0.07% | stability of salt solid form to humidification ([8]; listed as Pattern 14-A): stable | stability of salt solid form to humidification ([8]; listed as phosphate 14-A): stable | stability of salt solid form to humidification ([8]; listed as solid form 14-A): stable | stability of salt solid form to drying ([8]; listed as Pattern 14-A): stable | stability of salt solid form to drying ([8]; listed as phosphate 14-A): stable | stability of salt solid form to drying ([8]; listed as solid form 14-A): stable
